Test results published in patent US9932617B2, “Ketose 3-epimerase produced by arthrobacter globiformis” (priority 2013, dated 2018).
Where two headings read alike, the source gives them in different places. Marks after values point to notes of the source that are not given here.

Legend:
Type in all cases: biochemical, Arthrobacter globiformis M30
ketose 3-epimerase [1] = biological target: T1, ketose 3-epimerase (Arthrobacter globiformis, UniProt A0A1L7NQ96); assay: Effects of metal ions on EDTA treated purified enzyme; conditions: for Relative activity (%): 1 mM metal ion, D-psicose substrate, EDTA treated enzyme, activity without metal ions taken as 100; for metal ion activation: purified enzyme
T1 sequence (A0A1L7NQ96 whole entry): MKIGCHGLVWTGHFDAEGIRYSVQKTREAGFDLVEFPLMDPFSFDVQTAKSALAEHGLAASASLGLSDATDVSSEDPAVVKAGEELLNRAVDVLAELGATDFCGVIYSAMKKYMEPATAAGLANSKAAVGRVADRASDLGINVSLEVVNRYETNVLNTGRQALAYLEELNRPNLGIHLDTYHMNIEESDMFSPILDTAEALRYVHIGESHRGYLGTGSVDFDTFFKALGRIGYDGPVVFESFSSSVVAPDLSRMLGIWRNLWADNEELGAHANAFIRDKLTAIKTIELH
Procedure: The enzyme was examined for metal ion requirement. The purified enzyme was dialyzed for 2 hours against 10 mM Tris-HCl containing 1 mM EDTA (pH 7.5). The enzyme was further dialyzed against an EDTA-free 10 mM Tris-HCl buffer (pH 7.5) for a whole day and night to obtain an EDTA treated enzyme. This enzyme was used to measure the effect of metal ions on enzyme activity, using 1 mM of various metal ions, and D-psicose as the substrate. The results are presented in Table 13, in which the activity with addition of each type of metal ions is shown as the relative value with respect to the activity of the enzyme without metal ions which is taken as 100.

ketose 3-epimerase [2] = biological target: T1, ketose 3-epimerase
ketose 3-epimerase [3] = biological target: T1, ketose 3-epimerase; assay: D-PE substrate specificity, enzyme before purification (crude enzyme); conditions: 0.2 M substrate, 55° C., 30 min, Tris buffer pH 7.0, D-psicose epimerization activity taken as 100
Procedure: A reaction was allowed under the reaction conditions below. After quenching the reaction by boiling, the reaction liquid was desalted with an ion-exchange resin, and filtered to prepare an HPLC sample. The sample was analyzed by chromatography using CK08EC (Mitsubishi Chemical Corporation) in an HPLC system (Tosoh). Each product sugar was determined by calculations from the peak area values of the chromatogram.
Eight hexose (ketoses) were used to examine the substrate specificity of the present enzyme before purification. An enzyme reaction composition (Table 4) containing each substrate (0.2 M, 350 μl) and an enzyme liquid (350 μl; Tris buffer pH 7.0) was allowed to react at 55° C. for 30 min, and the ketose epimerized and produced from each sugar was analyzed by HPLC. The results are presented as relative activity for each ketose relative to the D-psicose epimerization activity which is taken as 100, as follows. Table 5 presents relative activity values for D-fructose, D-psicose, D-sorbose, D-tagatose, L-fructose, L-psicose, L-sorbose, […] L-tagatose substrates. The activity was the highest for D-psicose, and the second highest for D-fructose. The substrate specificity can be said as characteristic of the D-psicose 3 epimerase (DPE), not other free ketose 3 epimerases, and was clearly different from the specificity of the D-tagatose3-epimerase (DTE) of Pseudomonas cichorii.

ketose 3-epimerase [4] = biological target: T1, ketose 3-epimerase; assay: Substrate specificity of purified enzyme for all ketohexoses; conditions: 400 mM substrate, 20 mM MgCl2, 70° C. (120 min for D-sorbose and L-fructose, 20 min others), D-psicose taken as 100
Procedure: The reactivity of the present enzyme was examined with respect to the all ketohexoses. The enzyme activity was tabulated as the relative activity with respect to the activity for D-psicose which is taken as 100. The present enzyme had activity for the all ketohexoses, and the activity was the highest for D-psicose. […] The initial velocity was determined by allowing a reaction at 70° C. for 120 min for D-sorbose and L-fructose, and 70° C. for 20 min for the other substrates.

ketose 3-epimerase [5] = biological target: T1, ketose 3-epimerase; assay: Km and Vmax of the present enzyme; conditions: 30° C., in the presence of Mg^2+ ions
Procedure: The Km and Vmax of the present enzyme for D-psicose and D-fructose were measured. The measurement was made by measuring enzyme activity at 30° C. in the presence of Mg^2+ ions.

[6] = crude enzyme dialyzed against EDTA, D-fructose substrate, pH 7.0, 55° C., 30 min

Compound | Relative activity (%) (ketose 3-epimerase [1]) | Relative activity (%) (ketose 3-epimerase [3]) | Relative activity (%) (ketose 3-epimerase [4]) | also measured
[Ca+2] [Ca^2+, calcium] | 110 |  |  | metal ion activation (ketose 3-epimerase [1]): activatable
[Cl-].[Cl-].[Co+2] [CoCl2] |  |  |  | metal ion activation (effect of metal salt on enzyme activity) (ketose 3-epimerase [2]; pH 7): increased
[Co+2] [Co^2+, divalent cobalt ions] | 130 |  |  | metal ion activation (ketose 3-epimerase [1]): activatable; metal ion activation (effect of metal salt on enzyme activity) (ketose 3-epimerase [2]; [6]): activatable
[Cu+2] [Cu^2+] | 0 |  |  | 
O=C(CO)[C@@H](O)[C@H](O)[C@H](O)CO [D-fructose] |  | 58.14% | 43.8 | Km (ketose 3-epimerase [5]): 31.5 mM; Vmax (ketose 3-epimerase [5]): 68.5 U/mg
O=C(CO)[C@H](O)[C@H](O)[C@H](O)CO [D-psicose] |  | 100* % | 100 | Km (ketose 3-epimerase [5]): 30.1 mM; Vmax (ketose 3-epimerase [5]): 168 U/mg
O=C(CO)[C@H](O)[C@@H](O)[C@H](O)CO [D-sorbose] |  | 1.25% | 1.13 | 
O=C(CO)[C@@H](O)[C@@H](O)[C@H](O)CO [D-tagatose] |  | 5.42% | 18.3 | 
[Fe+2] [Fe^2+] | 32 |  |  | 
O=C(CO)[C@H](O)[C@@H](O)[C@@H](O)CO [L-fructose] |  | 12% | 0.97 | 
O=C(CO)[C@@H](O)[C@@H](O)[C@@H](O)CO [L-psicose] |  | 12% | 21.2 | 
O=C(CO)[C@@H](O)[C@H](O)[C@@H](O)CO [L-sorbose] |  | 8% | 16.6 | 
O=C(CO)[C@H](O)[C@H](O)[C@@H](O)CO [L-tagatose] |  | 12.5% | 44.0 | 
[Mg+2] [Mg^2+, magnesium ions] | 150 |  |  | metal ion activation (ketose 3-epimerase [1]): activatable
[Mn+2] [Mn^2+, divalent manganese ions] | 137 |  |  | metal ion activation (ketose 3-epimerase [1]): activatable; metal ion activation (effect of metal salt on enzyme activity) (ketose 3-epimerase [2]; [6]): activatable
[Na+] [Na^+] | 120 |  |  | 
[Ni+2] [Ni^2+] | 87 |  |  | 
[Zn+2] [Zn^2+] | 0 |  |  | 
manganese chloride [MnCl2] |  |  |  | metal ion activation (effect of metal salt on enzyme activity) (ketose 3-epimerase [2]; [6]): increased
